Laboratory results from patent US20020061866A1, “Pharmaceutical compositions comprising in combination a bisphosphonate and a matrix metalloproteinase inhibitor” (priority 1999, published 2002).
“And” between values parts separate entries of the source, which are not always exact repeats. Equal entries are not always repeated.

Tests used:
[1] = tested on: human PC-3 ML prostatic cancer subclones; conditions: pretreatment of SCID mice; cited from earlier work
[2] = tested on: MMP-2 production and secretion by PC-3 ML cells; conditions: in vitro and in vivo; cited from earlier work
[3] = tested on: human estrogen-independent breast cancer MDA-231 cells; conditions: nontransfected MDA-231 cells, daily subcutaneous administration; cited from earlier work
[4] = tested on: IL-1β-induced MMP-1 secretion by BMSC; assay: Determination of interstitial collagenase (MMP-1) levels by ELISA; assay type: cell-based, human; conditions: IL-1β (10 ng/ml) stimulated, 48 h, mean ± SD
Method: (§1) BMSC are obtained from 7 patients with MM after long term culture of bone marrow samples. Bone marrow mononuclear cells are isolated by Ficoll-Hypaque density centrifugation. The cells are plated in DMEM supplemented with 10% FCS and allowed to attach for 3 days, after which the medium is renewed. After 2 to 3 weeks of culture, a confluent adherent cell monolayer is obtained and then, after two passages using trypsin/ETA solution, BMSC are recovered for study. Cells are maintained in DMEM supplemented with 10% FCS, 2 mmol/L glutamine, 100 μg/mL streptomycin, 100 U/mL penicillin, and 5. 10^−5 mol/L 2-β-mercaptoethanol.
Adherent BMSC (15×10^3 cells) plated in 96-well plates are preincubated for 24 hours with either pamidronate or zoledronate. Then the cells are stimulated by IL-1β (10 ng/ml) in the presence of different concentrations (10^−6, 10^−7, 10^−8 and 10^−9 Mol/L) of each bisphosphonate without FCS. After a 48-hour incubation period, supernatants are collected and stored at −20° C. until analysis. MMP-1 levels are measured by ELISA (Amersham, Les Ulis, France). This assay measures MMP-1 irrespective of its mode of presentation (i.e. free or bound, active or not).

[5] = tested on: human myeloma cell lines (HMCL) LP-1, OPM-2 and JJN-3; assay: Proliferation of HMCL, [3H]-thymidine incorporation (three cell lines together); assay type: cell-based; conditions: for inhibition at 500 µM: Homo sapiens, 72 h, all the HMCL
Method: (§2) The human myeloma cell lines (HMCL) LP-1 and OPM-2 were obtained from DSM (Braunschweig, Germany). JJN-3 was kindly provided by B Van Campo (VUB, Belgium). Cells are maintained in RPMI 1640 culture medium supplemented with 10% fetal calf serum (FCS), 2mM glutamine, antibiotics (100 IU/ml penicillin and 100 μg/ml streptomycin) and 10 μM 2-β-mercaptoethanol.
(§3) The three HMCL are studied Le., LP-1, OPM-2 and JJN-3. Proliferation assays are performed in 96-well round-bottom microtiter plates at a cell density of 10^5 cells/mL. Cells are incubated for 3 days at 37° C. in a 5% CO2 humidified atmosphere with or without recombinant human IL-6 (rhIL-6) at 5 ng/ml, in the presence (or not) of the bisphosphonate of interest. Then, […] of […] is added during the last 18 hours. [^3H]-thymidine, incorporation is quantified by liquid scintillation spectroscopy.

LP-1 = assay: Proliferation of HMCL, [3H]-thymidine incorporation; assay type: cell-based, human; conditions: for IC50: Homo sapiens, LP-1, 72 h, 3 days
Method: as §2, §3

OPM-2 = assay: as above; assay type: cell-based, human; conditions: for IC50: Homo sapiens, OPM-2, 72 h, 3 days
Method: as §2, §3

JJN-3 = assay: as above; assay type: cell-based, human; conditions: for concentration at which proliferation returns to the level of the control: JJN-3
Method: as §2, §3

BMSC = assay: Survival experiments, BMSC apoptosis by APO 2.7 flow cytometry; assay type: cell-based, human; conditions: 10^−4 mol/L, 3-day incubation
Method: as §1
Adherent BMSC (3×10^5 cells) are plated in 25 cm^2 flasks and are incubated with either pamidronate (APD) or zoledronate, at the following concentrations: 10^−4 and 10^−5 mol/L. A control without bisphosphonate is performed After a 3-day incubation period, cells are washed with PBS and removed from the flasks using trypsin-EDTA for 20 seconds. The percentage of apoptotic cells is determined by flow cytometry using APO 2.7 mAb (Immunotech, Marseilles, France) (ibid.).

[6] = tested on: constitutive production of IL-6 by BMSC; assay: Determination of IL-6 concentrations by ELISA; assay type: cell-based, human; conditions: 48 h
Method: as §1
Adherent BMSC (10^4 cells) plated in 96-well plates are preincubated for 24 hours with either pamidronate or zoledronate. The medium is replaced by a fresh one containing 2% FCS and different concentrations of each bisphosphonate: 10^−6, 10^−7, 10^−8, 10^−9, 10^−10, 10^−11 Mol/L of zoledronate and 10^−6, 10^−7, 10^−8, 10^−9, 10^−10 Mol/L of pamidronate respectively. After a 48-hour incubation period, the supernatants are collected and stored at −20° C. until analysis. L6 A production is measured by ELISA (ELISA test concentrations ranging from 10 to 500 pg/mL) (Innotest, Besancon, France). No interference between the bisphosphonates and ELISA is observed in this study (data not shown). Six of the seven BMSC are tested for production of IL-6 in the presence of bisphosphonates.

MMP-2 secretion by BMSC = assay: Determination of gelatinase A (MMP-2) levels by gelatin substrate gel zymography; assay type: cell-based, human; conditions: 48 h
Method: as §1
Adherent BMSC (10^4 cells) plated in 96-well plates are preincubated for 24 hours with either pamidronate or zoledronate. Then the medium is replaced by a fresh one without FCS but in the presence of different concentrations (10^−6, 10^−7, 10^−8, 10^−9 Mol/L) of each bisphosphonate. After a 48-hour incubation period, the supernatants are collected and stored at −20° C. until analysis. MMP-2 production is shown by gelatin substrate gel zymography. The supernatants are mixed with sodium dodecyl sulfate (SDS) sample buffer without reducing agent and then, proteins are separated by SDS-polyacrylamide gel electrophoresis in 7.5% polyacrylamide gels containing gelatin at 1 mg/ml, as previously described by Heussen and Dowdle(1980 Ann. Biochem. 102: 196-202) and adjusted for minigel format. After electrophoresis, SDS is removed from the gels by an incubation in 2.5% Triton X-100 for half an hour at room temperature. The gels are then incubated at 37° C. in a buffer containing 50 mM/L Tris-HCl 5 mM/L CaCl2, pH 7.6 for 24 hours. The gels were stained with Coomassie blue R250 (0.25%). […] The intensity of the gelatinolytic bands is analysed by densitometry. No interference between bisphosphonates and gelatin substrate gel zymography is observed using this assay (data not shown).

LP-1 cells = assay: Analysis of cell cycle, propidium iodide flow cytometry; assay type: cell-based, human; conditions: LP-1, 5×10^−4 Mol/L, 4 day incubation; control 36%
Method: LP-1 cells (2×10^5 cells) plated in a 24 well-plate are incubated in the presence of 5×10^−4 Mol/L of either pamidronate or zoledronate. A control without bisphosphonate is performed. Cells are recovered after a 4day incubation period and washed. They are then incubated for 40 minutes at 37° C. with a solution of Triton×100 0.1%, Sodium Citrate 0.1%, 5 IU of RNAse and stained with propidium iodide (PI) 50 mg/L: Flow cytometry analysis is performed on a FACSCalibur using a CELLQuest program (Becton Dickinson). Data are gated on the F12-Area venus FL2-Width cytogram to exclude doublets and agregates, and a minimum of 2.5×10^4 gated cells is collected per sample. Analysis of the cell cycle was performed using the Modfit LT for Mac V2.01 program (Verity Software House, Inc). Apoptotic cells were detected as a subdiploid peak as described by Zamai et al. (1993, Cytometry 14: 891-897)

Row | Structure (SMILES) | production and secretion of MMP-2 by PC-3 ML cells [2] | inhibition of MMP-1 secretion by BMSC [4] | inhibition at 500 µM ([5]; 5×10^−4 Mol/L, 3 days) | IC50 (LP-1) | IC50 (OPM-2) | concentration at which proliferation returns to the level of the control (JJN-3) | APO 2.7 stained (apoptotic) BMSC (BMSC) | concentration at which IL-6 production returns to the basal level ([6]; BMSC) | MMP-2 upregulation (72 kDa gelatinase activity, densitometry) (MMP-2 secretion by BMSC; 10^−6 mol/L) | also measured
1 | NCCCC(O)(P(=O)(O)O)P(=O)(O)O [alendronate, 4-amino-1-hydroxybutane-1,1-diphosphonic acid] | independently reduced, in part |  |  |  |  |  |  |  |  | establishment of bone metastases [1]: partially blocked
2 | CCCCCN(C)CCC(O)(P(=O)(O)O)P(=O)(O)O [ibandronate, 1-hydroxy-3-(methylpentylamino)-propylidene-bisphosphonic acid] |  |  |  |  |  |  |  |  |  | osteolytic lesions in bone (radiographs) [3]: markedly decreased
3 | NCCC(O)(P(=O)(O)O)P(=O)(O)O [pamidronate, (3-amino-1-hydroxypropylidene) bis-phosphonate] |  | 21%±20% | 75% | 207 µM | 293 µM | 1e-05 mol/L | 97% | 10^−11 mol/L | 165%±27% | percentage of proliferation, of that of the control ([5]; 5×10^−4 Mol/L, the three cell lines, 3 days): 25%; concentration up to which dose-dependent inhibition of proliferation is observed ([5]; except for JJN-3): 5e-05 mol/L; IC50 (JJN-3; Homo sapiens, JJN-3, 72 h, 3 days): 107 µM; inhibition of IL-6 production by BMSC ([6]; not proportional to dose, six BMSC samples, p=0.05): 40%±14%
4 | CC(=O)O[C@H]1C(=O)[C@@]2(C)[C@H]([C@H](OC(=O)c3ccccc3)[C@]3(O)C[C@H](OC(=O)[C@H](O)[C@@H](NC(=O)c4ccccc4)c4ccccc4)C(C)=C1C3(C)C)[C@]1(OC(C)=O)CO[C@@H]1C[C@@H]2O [taxol] | independently reduced, in part |  |  |  |  |  |  |  |  | 
5 | O=P(O)(O)C(O)(Cn1ccnc1)P(=O)(O)O [zoledronate, (1-hydroxy-2-(1H-imidazole-1-yl)ethylidene) bisphosphonate] |  | 44%±14% | ~95% | 193 µM | 155 µM | 1e-05 mol/L | 24% | 10^−9 mol/L | 180%±12% and 205%±7% | concentration at which normal proliferation rate is recovered (LP-1; LP-1): 5e-05 mol/L; concentration at which normal proliferation rate is recovered (OPM-2; OPM-2): 5e-05 mol/L; percentage of cells in S phase (LP-1 cells): 60%; inhibition at 1 µM ([6]; Homo sapiens, BMSC, 10^−6 mol/L, p=0.05, read-out: maximum inhibition of IL-6 production by BMSC): 60%; MMP-2 upregulation (72 kDa gelatinase activity, densitometry) (MMP-2 secretion by BMSC; 10^−9 mol/L): 159%±16%
